# Measured values as given in patent publication US20100266191A1, “METHOD FOR QUANTIFYING AN UNDERLYING PROPERTY OF A MULTITUDE OF SAMPLES” (priority 2007, published 2010).
# System: GFP-human Akt3 fusion protein
# Assay: Akt3/PKBγ Redistribution assay (inhibition of IGF-I-stimulated membrane translocation)
# Type: cell-based
# Details: dose response fit of the estimated process coordinate, two-parameter formula, FIG. 15; IGF-I as reference agonist; read-out: Wortmannin concentration causing 50% changes (a)
# Experimental: The Akt3/PKBγ Redistribution® assay from BioImage (http://www.bioimage.com) monitors translocation of GFP-human Akt3 fusion protein from the cytoplasm to the plasma membrane. Insulin-like growth factor-I (IGF-I) is used as reference agonist, and compounds are assayed for their ability to inhibit IGF-I-stimulated membrane translocation of Akt3/PKBγ. In inhibited cells, fluorescence is quite evenly distributed in the cytoplasmic space. In activated cells, there are spots of high intensity on the membrane area. Exemplary images from negative and positive control samples are presented on FIG. 1. […] The measured profiles for a series of positive and negative control samples are presented on FIG. 10. […] The measured profiles aid us in deciding how many segments we create and where their borders are. […] On FIG. 12, mean intensities of the three segments are plotted as read out parameters from images of positive control samples (left) and negative control samples (right). […] It is a linear combination of original intensities determined from the condition given in Eq. 4. […]
compound,measurement,value
"COC[C@H]1OC(=O)c2coc3c2[C@@]1(C)C1=C(C3=O)[C@@H]2CCC(=O)[C@@]2(C)C[C@H]1OC(C)=O [Wortmannin, wortmannin]",IC50,36.4 ± 3 nM
